Results reported in patent publication US10596234B2, “Compositions and methods to inhibit viral replication” (priority 2016, dated 2020).

Tests used:
[1] = system: IFN-β; experiment: IFN-β ELISA, 293T cells stably expressing UL37 infected with Sendai virus; type: cell-based, human; conditions: UL37 expression, SeV infection, 16 hpi
Experimental: Commercial cytokine ELISA kits used in this study include: human IFN-β (PBL Assay Science) and human RANTES (R&D Systems). Cytokine levels in the supernatant from cultured cells were assessed according to manufacturer's instruction. Absorbance was determined with FLUOstar Omega (BMG Labtech.).

[2] = target: T1, RIG-I (Homo sapiens, UniProt O95786, D580E); experiment: In vitro deamidation assay (RIG-I); type: biochemical; conditions: protein purified from E. coli, 2-DGE
T1 construct: made in house; host or cells: GST-RIG-I: transfected 293T cells; UL37: E. coli
T1 sequence (O95786 1-925 D580E): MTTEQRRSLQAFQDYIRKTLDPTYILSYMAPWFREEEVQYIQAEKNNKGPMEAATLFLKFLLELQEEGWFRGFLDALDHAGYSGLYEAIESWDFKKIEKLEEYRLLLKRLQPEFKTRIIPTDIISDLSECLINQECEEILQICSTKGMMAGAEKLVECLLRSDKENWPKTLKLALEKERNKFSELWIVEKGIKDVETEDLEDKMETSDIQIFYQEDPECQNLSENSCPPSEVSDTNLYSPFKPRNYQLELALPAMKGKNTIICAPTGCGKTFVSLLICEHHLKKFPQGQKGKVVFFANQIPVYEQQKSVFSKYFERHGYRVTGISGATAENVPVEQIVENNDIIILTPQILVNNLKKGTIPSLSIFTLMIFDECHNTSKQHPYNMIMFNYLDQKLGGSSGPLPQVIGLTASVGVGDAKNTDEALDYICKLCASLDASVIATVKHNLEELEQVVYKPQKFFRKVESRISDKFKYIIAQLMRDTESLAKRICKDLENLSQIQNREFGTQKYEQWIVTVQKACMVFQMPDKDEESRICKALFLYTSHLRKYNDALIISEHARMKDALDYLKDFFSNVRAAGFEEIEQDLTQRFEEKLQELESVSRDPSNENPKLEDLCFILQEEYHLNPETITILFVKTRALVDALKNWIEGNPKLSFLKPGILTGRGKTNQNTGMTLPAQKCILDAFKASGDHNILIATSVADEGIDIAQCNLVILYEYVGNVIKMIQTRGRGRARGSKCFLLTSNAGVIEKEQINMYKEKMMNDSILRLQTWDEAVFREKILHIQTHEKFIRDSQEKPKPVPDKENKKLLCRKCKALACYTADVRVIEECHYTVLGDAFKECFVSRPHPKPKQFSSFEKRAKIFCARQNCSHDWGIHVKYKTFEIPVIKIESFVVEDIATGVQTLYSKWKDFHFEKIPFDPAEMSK
Experimental: GST-RIG-I was purified from transfected 293T cells to homogeneity as determined by silver staining. In vitro on-column deamidation of RIG-I was performed as previously reported (He et al., 2015). Briefly, ˜0.2 μg of His-tagged UL37/UL37 (571-1123) expressed and purified from E. coli, and 0.6 μg of GST-RIG-I (bound to glutathione-conjugated agarose) were added to a total volume of 30 μl. The reaction was carried out at 30° C. for 45 min in deamidation buffer (50 mM Tris-HCl, pH 7.5, 100 mM NaCl, 5 mM MgCl2). Protein-bound GST beads were washed with deamidation buffer and GST-RIG-I was eluted with rehydration buffer (6 M Urea, 2 M Thio-urea, 2% CHAPS, 0.5% IPG Buffer, 0.002% bromophenol blue) at room temperature. Samples were then analyzed by two-dimensional gel electrophoresis and immunoblotting.

[3] = system: cGAS; experiment: cGAMP reporter assay (THP1-Lucia); type: cell-based, human; conditions: THP-1 cells transfected with HT-DNA (HT-DNA alone approximately 60 ng)
Experimental: THP-1 Cells were transfected with HT-DNA (2 μg/ml) or infected with HSV-1 virus for 6 h. Cell extracts were prepared by heating at 95° C. for 5 min to denature most proteins, and then the precipitated proteins were removed by centrifugation. The supernatant containing cGAMP was delivered to digitonin-permeabilized (2.5 μg/ml for 30 min) THP1-Lucia cells at 37° C. for 30 min. The cells were cultured for another 20 h before Lucia reporter activity was measured according to the manufacturer's instruction (InvivoGen). Pure cGAMP was diluted and used as standard for the assay.

[4] = system: cGAS; experiment: Real-time PCR in THP-1 cells stably expressing UL37, transfected with HT-DNA; type: cell-based, human
Experimental: THP-1 or L929 cells were infected with HSV-1 (MOI=5) or stimulated with HT-DNA (2 μg/ml) or cGAMP (2 μg/ml) for 6 h unless specifically indicated otherwise. Cells were washed with cold PBS, and total RNA was extracted by using TRIzol Reagent (Invitrogen). RNA was digested with DNase I (New England Biolabs) to remove genomic DNA. One microgram of total RNA was used for reverse transcription with PrimeScript Reverse Transcriptase (Clontech) according to the manufacturer's instruction. Approximately 0.5% of the cDNA was used as template in each quantitative real-time PCR (qRT-PCR) reaction with SYBR master mix (Applied biosystems).
Lentivirus production was carried out in 293T cells as described previously. THP-1 or L929 cells were infected with lentivirus containing UL37 or UL37 C819S mutant. After 36 h, THP-1 cells were selected with puromycin at 1 μg/ml and L929 cells were selected with puromycin at 5 μg/ml.

[5] = system: cGAS; experiment: Tandem mass spectrometry quantification of cGAS deamidation; type: biochemical, mouse; conditions: UL37 expression; N196, N377, Q436, Q439
Experimental: Purified mcGAS(141-507) was deamidated by purified FLAG-UL37 in vitro. Then the samples were resolved with SDS-PAGE and the mcGAS bands were excised and applied to LC/MS/MS analysis. The analysis of samples was carried out using a Thermo Scientific Q-Exactive hybrid Quadrupole-Orbitrap Mass Spectrometer and a Thermo Dionex UltiMate 3000 RSLCnano System. Peptide mixtures from each sample were loaded onto a peptide trap cartridge at a flow rate of 5 μL/min. The trapped peptides were eluted onto a reversed-phase PicoFrit column (New Objective, Woburn, Mass.) using a linear gradient of acetonitrile (3-36%) in 0.1% formic acid. The elution duration was 120 min at a flow rate of 0.3 μl/min. Eluted peptides from the PicoFrit column were ionized and sprayed into the mass spectrometer, using a Nanospray Flex Ion Source ES071 (Thermo) under the following settings: spray voltage, 2.0 kV, Capillary temperature, 250° C. Other settings were empirically determined. Raw data files were searched against mouse protein sequence database obtained from NCBI website using the Proteome Discoverer 1.4 software (Thermo, San Jose, Calif.) based on the SEQUEST algorithm. Carbamidomethylation (+57.021 Da) of cysteines was fixed modification, and Oxidation and Deamidation Q/N-deamidated (+0.98402 Da) were set as dynamic modifications. The minimum peptide length was specified to be five amino acids. […]

[6] = system: cGAS; experiment: In vitro deamidation assay (cGAS); type: biochemical, mouse; conditions: purified proteins
Experimental: The in vitro deamidation assay was performed as previously described. Briefly, 5 μg of purified MBP-mcGAS or MBP-mcGAS-DDEE mutant on amylose resin was incubated with 0.5 gig of purified FLAG-UL37 or FLAG-UL37C819S at 30° C. for 45 min in deamidation buffer (50 mM Tris-HCl [pH 7.5], 100 mM NaCl, and 5 mM MgCl2). Then the reaction was stopped by adding rehydration buffer and the eluted proteins were analyzed by two-dimensional gel electrophoresis.

[7] = target: T2, cGAS (Mus musculus, UniProt Q8C6L5); experiment: In vitro cGAMP activity assay; type: biochemical; conditions: in vitro cGAMP reaction
T2 construct: Purified mcGAS(141-507) was deamidated by purified FLAG-UL37 in vitro; made in house; host or cells: E. coli BL21 (DE3)
Experimental: 1 μM of MBP-cGAS or mutant proteins was mixed with 100 μM ATP and 100 μM GTP and 10 μCi [α-P32]-ATP in reaction buffer (20 mM Tris-Cl [pH 7.5], 150 mM NaCl, 5 mM MgCl2, 1 mM dithiothreitol [DTT]). After 2 h of incubation at 37° C., 2 μl of reaction solution was spotted onto PEI-Cellulose thin layer chromatography plate (Sigma). Reaction products were resolved with running buffer (1 M (NH4)2SO4, 1.5 M KH2PO4, pH 3.8). The TLC plates were dried and scanned with Phosphoimager (Fuji).

[8] = system: interferon-stimulating DNA (ISD); experiment: Precipitation of biotinylated interferon-stimulating DNA (ISD) with cGAS; type: binding

T2 sequence (Q8C6L5 141-507): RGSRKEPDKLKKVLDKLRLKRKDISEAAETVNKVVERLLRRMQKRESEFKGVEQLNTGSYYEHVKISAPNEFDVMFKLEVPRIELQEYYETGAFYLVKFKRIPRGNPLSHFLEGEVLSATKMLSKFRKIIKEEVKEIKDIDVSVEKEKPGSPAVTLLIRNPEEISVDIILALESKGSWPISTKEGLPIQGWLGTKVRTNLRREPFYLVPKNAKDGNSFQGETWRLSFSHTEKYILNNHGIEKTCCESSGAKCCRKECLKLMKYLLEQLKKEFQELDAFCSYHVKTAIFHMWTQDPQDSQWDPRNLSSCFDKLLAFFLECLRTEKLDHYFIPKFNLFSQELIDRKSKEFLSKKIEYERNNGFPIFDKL

UL37: HSV-1 UL37 tegument protein, a protein deamidase; SEQ ID NO. 1
reduction of IFN-β secretion [1]: ~75%
RIG-I deamidation in vitro [2]: sufficient to reduce RIG-I charge
intracellular cGAMP [3]: ~35 ng per one million THP-1 cells
reduction of IFNB1 and ISG56 expression ([4]; THP-1 cells, HT-DNA transfection, UL37 expression): ~60%
effect on expression of IFNB1, ISG56 and CXCL10 induced by HT-DNA ([4]; THP-1 stable cell lines): potently reduced the expression of IFNB1, ISG56 and CXCL10
increase of deamidation of the four cGAS sites [5]: 2-3 fold
cGAS deamidation in vitro (2DGE shift) [6]: shifted cGAS toward the positive end of the gel strip
effect of added UL37 on cGAS-mediated cGAMP production [7]: greatly reduced cGAS-mediated cGAMP production
increase of the interaction between cGAS and ISD [8]: ~50%
